Test results from patent US20230113037A1 (Bayer Aktiengesellschaft, priority 2019, published 2023).

Columns and labels:
[1] = molecular target: T1, AHR (Homo sapiens, UniProt P35869); experiment: In vitro assay 1: antagonism in human cell line (AHR transactivation, firefly luciferase reporter, kynurenic acid prestimulated); assay type: cell-based; conditions: AHR Antagonism Human IC50 [M]
T1 construct: U87 MG glioblastoma cells (ATCC #HTB-14) endogenously expressing AHR; endogenous in cells; host or cells: U87 MG glioblastoma cells (ATCC #HTB-14)
T1 sequence (P35869 11-848): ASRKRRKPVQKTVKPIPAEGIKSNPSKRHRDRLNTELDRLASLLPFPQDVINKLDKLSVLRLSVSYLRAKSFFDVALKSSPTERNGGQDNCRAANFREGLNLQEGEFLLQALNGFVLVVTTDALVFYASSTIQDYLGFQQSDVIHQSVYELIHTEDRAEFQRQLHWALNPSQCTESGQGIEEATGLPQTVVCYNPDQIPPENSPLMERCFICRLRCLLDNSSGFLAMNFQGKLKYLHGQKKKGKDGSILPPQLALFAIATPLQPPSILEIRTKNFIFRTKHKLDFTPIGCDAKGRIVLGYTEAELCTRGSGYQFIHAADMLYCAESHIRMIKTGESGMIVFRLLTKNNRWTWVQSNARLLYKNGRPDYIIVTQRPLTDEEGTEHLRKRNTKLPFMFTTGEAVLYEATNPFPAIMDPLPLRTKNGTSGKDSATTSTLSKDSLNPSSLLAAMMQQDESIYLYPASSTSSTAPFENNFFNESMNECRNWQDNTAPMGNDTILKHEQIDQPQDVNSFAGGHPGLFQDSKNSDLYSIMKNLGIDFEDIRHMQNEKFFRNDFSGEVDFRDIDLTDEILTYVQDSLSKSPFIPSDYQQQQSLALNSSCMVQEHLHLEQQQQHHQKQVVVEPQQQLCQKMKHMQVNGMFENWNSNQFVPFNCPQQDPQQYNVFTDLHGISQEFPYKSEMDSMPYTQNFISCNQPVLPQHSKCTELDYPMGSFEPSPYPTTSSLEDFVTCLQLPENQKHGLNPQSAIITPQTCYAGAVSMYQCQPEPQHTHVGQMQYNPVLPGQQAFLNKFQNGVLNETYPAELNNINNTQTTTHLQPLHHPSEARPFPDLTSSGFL
Outline: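 U87 MG + DRE-firefly/constitutive-Renilla stable reporters; kynurenic acid prestim; dual-luc read; Renilla = tox; normalized vs pos/neg controls (pos: 150 μM KYNA + 5 μM staurosporine).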

[2] = molecular target: T2, AHR (Mus musculus, UniProt P30561); experiment: In vitro assay 3: antagonism in mouse cell line (AHR transactivation, firefly luciferase reporter, kynurenic acid prestimulated); assay type: cell-based; conditions: mouse Hepa 1c1c7 cells, 200 μM kynurenic acid, 20 hours, read-out: AHR Antagonism Mouse IC50
T2 sequence (P30561 1-848 P471L/N533S/M589L): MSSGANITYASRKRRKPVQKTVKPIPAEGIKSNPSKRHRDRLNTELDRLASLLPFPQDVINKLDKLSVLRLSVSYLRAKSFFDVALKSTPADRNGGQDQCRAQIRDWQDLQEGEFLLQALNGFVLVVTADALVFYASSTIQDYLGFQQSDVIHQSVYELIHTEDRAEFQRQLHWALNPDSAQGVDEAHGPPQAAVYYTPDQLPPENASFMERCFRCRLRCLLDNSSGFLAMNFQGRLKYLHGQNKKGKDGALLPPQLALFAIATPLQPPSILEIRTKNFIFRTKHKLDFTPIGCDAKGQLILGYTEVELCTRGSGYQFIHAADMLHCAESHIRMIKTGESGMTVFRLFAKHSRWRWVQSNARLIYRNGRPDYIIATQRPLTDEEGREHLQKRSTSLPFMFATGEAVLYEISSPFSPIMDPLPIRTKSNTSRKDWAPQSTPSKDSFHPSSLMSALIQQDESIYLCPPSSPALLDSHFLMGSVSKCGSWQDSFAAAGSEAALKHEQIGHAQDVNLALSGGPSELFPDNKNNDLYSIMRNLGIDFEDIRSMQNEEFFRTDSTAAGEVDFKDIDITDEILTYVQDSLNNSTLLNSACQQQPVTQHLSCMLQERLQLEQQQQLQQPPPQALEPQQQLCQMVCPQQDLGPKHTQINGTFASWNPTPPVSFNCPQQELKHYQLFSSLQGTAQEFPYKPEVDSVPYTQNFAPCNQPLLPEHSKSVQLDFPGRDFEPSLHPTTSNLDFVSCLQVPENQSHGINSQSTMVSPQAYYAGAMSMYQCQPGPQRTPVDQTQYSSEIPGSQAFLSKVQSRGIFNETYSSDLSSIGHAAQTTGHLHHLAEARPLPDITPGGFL
Outline: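 Mouse cells stably carrying a DRE-driven AHR-inducible firefly luciferase reporter were prestimulated with the endogenous agonist kynurenic acid before compound addition. Luciferase read by SteadyGlo; cells without kynurenic acid served as full-inhibition control, with normalization to positive and negative controls. Repeat tests reported as mean or median.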

| Compound | IC50 [1] | IC50 [2] |
| --- | --- | --- |
| CCC[C@@H](Nc1nc2ccccc2c2nc(-c3cc(F)ccc3OC(F)(F)F)nn12)C(=O)NC [Example 494, N^2-{2-[5-fluoro-2-(trifluoromethoxy)phenyl][1,2,4]triazolo[1,5-c]quinazolin-5-yl}-N-methyl-D-norvalinamide] | 2.28e-07 M | 0.0111 µM |
| CCCNC(=O)[C@@H](C)Nc1nc2ccccc2c2nc(-c3cc(F)ccc3OC(F)(F)F)nn12 [Example 495, N^2-{2-[5-fluoro-2-(trifluoromethoxy)phenyl][1,2,4]triazolo[1,5-c]quinazolin-5-yl}-N-propyl-D-alaninamide] | 7.03e-08 M | 0.0132 µM |
| CCC[C@@H](Nc1nc2ccccc2c2nc(-c3cc(Cl)ccc3OC(F)(F)F)nn12)C(=O)NC [Example 501, N^2-{2-[5-chloro-2-(trifluoromethoxy)phenyl][1,2,4]triazolo[1,5-c]quinazolin-5-yl}-N-methyl-D-norvalinamide] | > 2e-05 M | 0.0908 µM |
| CCCCNC(=O)CNc1nc2ccccc2c2nc(-c3cc(Cl)ccc3OC(F)(F)F)nn12 [Example 503, N-butyl-N^2-{2-[5-chloro-2-(trifluoromethoxy)phenyl][1,2,4]triazolo[1,5-c]quinazolin-5-yl}glycinamide] | > 2e-05 M | > 20 µM |
| CC[C@@H](Nc1nc2ccccc2c2nc(-c3cc(Cl)ccc3OC(F)(F)F)nn12)C(N)=O [Example 504, (2R)-2-({2-[5-chloro-2-(trifluoromethoxy)phenyl][1,2,4]triazolo[1,5-c]quinazolin-5-yl}amino)butanamide] | 3.65e-07 M | 0.0379 µM |
| CC[C@@H](Nc1nc2ccccc2c2nc(-c3cc(Br)ccc3OC(F)(F)F)nn12)C(N)=O [Example 507, (2R)-2-({2-[5-bromo-2-(trifluoromethoxy)phenyl][1,2,4]triazolo[1,5-c]quinazolin-5-yl}amino)butanamide] | 3.44e-07 M | 0.0412 µM |
| CCC[C@@H](Nc1nc2ccccc2c2nc(-c3ccc(OC)cc3OC(F)(F)F)nn12)C(=O)NC [Example 510, N^2-{2-[4-methoxy-2-(trifluoromethoxy)phenyl][1,2,4]triazolo[1,5-c]quinazolin-5-yl}-N-methyl-D-norvalinamide] | 5.39e-08 M | 0.0117 µM |
| CC[C@@H](Nc1nc2ccccc2c2nc(-c3ccc(OC)cc3OC(F)(F)F)nn12)C(N)=O [Example 511, (2R)-2-({2-[4-methoxy-2-(trifluoromethoxy)phenyl][1,2,4]triazolo[1,5-c]quinazolin-5-yl}amino)butanamide] | 7.5e-09 M | 0.0014 µM |
| CC[C@H](Nc1nc2ccccc2c2nc(-c3ccc(OC)cc3C(F)(F)F)nn12)C(N)=O [Example 514, (2S)-2-({2-[4-methoxy-2-(trifluoromethyl)phenyl][1,2,4]triazolo[1,5-c]quinazolin-5-yl}amino)butanamide] | > 2e-05 M | 0.188 µM |
| CC[C@@H](Nc1nc2ccccc2c2nc(-c3ccc(OC)cc3C(F)(F)F)nn12)C(N)=O [Example 515, (2R)-2-({2-[4-methoxy-2-(trifluoromethyl)phenyl][1,2,4]triazolo[1,5-c]quinazolin-5-yl}amino)butanamide] | 3.17e-08 M | 0.00206 µM |

Second part, the molecule after the results:

| IC50 [1] | IC50 [2] | Compound |
| --- | --- | --- |
| > 2e-05 M | 0.0369 µM | O=C1NCCCC[C@@H]1Nc1nc2ccccc2c2nc(-c3cc(F)ccc3OC(F)(F)F)nn12 [Example 493, (3S)-3-({2-[5-fluoro-2-(trifluoromethoxy)phenyl][1,2,4]triazolo[1,5-c]quinazolin-5-yl}amino)azepan-2-one] |
| 4.66e-08 M | 0.0019 µM | CC[C@@H](Nc1nc2ccccc2c2nc(-c3cc(F)ccc3OC(F)(F)F)nn12)C(N)=O [Example 496, (2R)-2-({2-[5-fluoro-2-(trifluoromethoxy)phenyl][1,2,4]triazolo[1,5-c]quinazolin-5-yl}amino)butanamide] |
| > 2e-05 M | 0.7 µM | O=C1NCCCC[C@@H]1Nc1nc2ccccc2c2nc(-c3cc(Cl)ccc3OC(F)(F)F)nn12 [Example 498, (3S)-3-({2-[5-chloro-2-(trifluoromethoxy)phenyl][1,2,4]triazolo[1,5-c]quinazolin-5-yl}amino)azepan-2-one] |
| > 2e-05 M | > 20 µM | O=C1NCCC[C@H]1Nc1nc2ccccc2c2nc(-c3cc(Cl)ccc3OC(F)(F)F)nn12 [Example 499, (3R)-3-({2-[5-chloro-2-(trifluoromethoxy)phenyl][1,2,4]triazolo[1,5-c]quinazolin-5-yl}amino)piperidin-2-one] |
| > 2e-05 M | 2.97 µM | O=C1NCC[C@H]1Nc1nc2ccccc2c2nc(-c3cc(Cl)ccc3OC(F)(F)F)nn12 [Example 500, (3R)-3-({2-[5-chloro-2-(trifluoromethoxy)phenyl][1,2,4]triazolo[1,5-c]quinazolin-5-yl}amino)pyrrolidin-2-one] |
| > 2e-05 M | 0.0507 µM | O=C1NCCCC[C@H]1Nc1nc2ccccc2c2nc(-c3cc(Br)ccc3OC(F)(F)F)nn12 [Example 505, (3R)-3-({2-[5-bromo-2-(trifluoromethoxy)phenyl][1,2,4]triazolo[1,5-c]quinazolin-5-yl}amino)azepan-2-one] |
| > 2e-05 M | > 20 µM | O=C1NCCCC[C@@H]1Nc1nc2ccccc2c2nc(-c3cc(Br)ccc3OC(F)(F)F)nn12 [Example 506, (3S)-3-({2-[5-bromo-2-(trifluoromethoxy)phenyl][1,2,4]triazolo[1,5-c]quinazolin-5-yl}amino)azepan-2-one] |
| 3.53e-09 M | 0.00421 µM | COc1ccc(-c2nc3c4ccccc4nc(N[C@@H]4CCCCNC4=O)n3n2)c(OC(F)(F)F)c1 [Example 508, (3R)-3-({2-[4-methoxy-2-(trifluoromethoxy)phenyl][1,2,4]triazolo[1,5-c]quinazolin-5-yl}amino)azepan-2-one] |
| 1.03e-07 M | 0.0569 µM | COc1ccc(-c2nc3c4ccccc4nc(N[C@H]4CCCCNC4=O)n3n2)c(OC(F)(F)F)c1 [Example 509, (3S)-3-({2-[4-methoxy-2-(trifluoromethoxy)phenyl][1,2,4]triazolo[1,5-c]quinazolin-5-yl}amino)azepan-2-one] |
| 1.04e-08 M | 0.00248 µM | COc1ccc(-c2nc3c4ccccc4nc(N[C@@H]4CCCCNC4=O)n3n2)c(C(F)(F)F)c1 [Example 512, (3R)-3-({2-[4-methoxy-2-(trifluoromethyl)phenyl][1,2,4]triazolo[1,5-c]quinazolin-5-yl}amino)azepan-2-one] |
| 2.66e-07 M | 0.0356 µM | COc1ccc(-c2nc3c4ccccc4nc(N[C@H]4CCCCNC4=O)n3n2)c(C(F)(F)F)c1 [Example 513, (3S)-3-({2-[4-methoxy-2-(trifluoromethyl)phenyl][1,2,4]triazolo[1,5-c]quinazolin-5-yl}amino)azepan-2-one] |
| 4.64e-09 M | 0.00218 µM | O=C1NCCCC[C@H]1Nc1nc2ccccc2c2nc(-c3ccc(F)cc3OC(F)(F)F)nn12 [Example 516, (3R)-3-({2-[4-fluoro-2-(trifluoromethoxy)phenyl][1,2,4]triazolo[1,5-c]quinazolin-5-yl}amino)azepan-2-one] |
